Measurements as given in patent US20220119446A1, “BIOMARKERS AND TREATMENT OF NEURONAL INJURY AND NEURODEGENERATION” (Board of Supervisons of Louisiana State University and …, priority 2018, published 2022).
Entries after “also recorded” stand apart in the source; their conditions may differ. * marks the point of attachment. Boc = CC(C)(C)OC(=O)*

What was measured:
ARPE-19 cells and hpRPE = assay: Apoptosis by Hoechst staining in RPE cells under UOS; type: cell-based, human; conditions: for apoptosis by UOS in the presence of the Wnt ligand: RPE cells under UOS with recombinant Wnt5a; for cell death by UOS on addition of Wnt5a: ARPE-19 cells and hpRPE under UOS, Wnt5a 50 ng/ml
Procedure: ARPE-19 cells, can be plated and grown in DMEM/F-12 containing 10% FBS and 1× penicillin/streptomycin at 37° C., 5% CO2, 99% relative humidity for 24 h. […] 15-LOX-1 deficient cells can be maintained in the same medium as ARPE-19 with the addition of 500 μg/mL Geneticin (Life Technologies Corporation, Carlsbad, Calif.). Transfection can be performed in all cases using Lipofectamine 2000 (Life Technologies Corporation, Carlsbad, Calif.) following the manufacturer's recommendations. […] Experiments with transfection efficiency that yielded less than 80% can be discarded. For siRNA, we used 6 μl of Lipofectamine 2000 per 50 pmol of siRNA per mL of incubation medium, and, for plasmids, we used 6 μl of Lipofectamine 2000 per 2 μg of plasmid per mL of incubation medium. Cells can be incubated for 5 hours at 37° C., 5% CO2 and 99% relative humidity. […] When siRNA/plasmid co-transfection is required, siRNA and plasmid-carrying transfection mixes can be prepared separately and added one after the other in the same well. Oxidative stress treatments can be performed using 600 (ARPE-19) or 1600 (hRPE) μM H2O2, along with 10 ng/mL TNFα, for the required time indicated in each experiment. The treatment we used employed the low serum (0.5% serum) without hFGF. Treatment to induce uncompensated oxidative stress (UOS) can be performed after 8 hours of low-serum medium incubation unless specifically noted. Wnt5a, Wnt3a or NPD1 can be added immediately before induction of UOS. In the secretion experiments, Pitstop 2 can be added to the medium 2 hours before harvesting.
(§1) Immunostaining can be performed in 8-well slide chambers and the Hoechst staining in 24-well plates. […] Briefly, cells can be fixed using 4% paraformaldehyde in PBS 1× for 20 min at room temperature or overnight at 4° C. After three washes with PBS, cells can be permeabilized using 0.1% Triton™ X-100 for five minutes and blocked using 10% normal serum and 1% BSA for one hour. […] Hoechst staining can be performed using same protocol of fixation. In one embodiment, permeabilization is done using methanol for 20 min at room temperature. […] Dying cells can be identified by size (0 to 50 pixels), intensity threshold, and circularity. The ratio of hyperpyknotic cells over the total can be calculated for nine randomly chosen fields per sample obtained from three independent wells per experiment. Each experiment can be repeated at least three times to confirm the findings.
ARPE-19 cells, were plated and grown in DMEM/F-12 containing 10% FBS and 1× penicillin/streptomycin at 37° C., 5% CO2, 99% relative humidity for 24 h. […] 15-LOX-1 deficient cells were maintained in the same medium as ARPE-19 with the addition of 500 μg/mL Geneticin (Life Technologies Corporation). Transfection was performed in all cases using Lipofectamine 2000 (Life Technologies Corporation) following the manufacturer's recommendations. […] Experiments with transfection efficiency that yielded less than 80% were discarded. For siRNA, we used 6 μl of Lipofectamine 2000 per 50 pmol of siRNA per mL of incubation medium, and, for plasmids, we used 6 μl of Lipofectamine 2000 per 2 μg of plasmid per mL of incubation medium. Cells were incubated for 5 hours at 37° C., 5% CO2 and 99% relative humidity. […] When siRNA/plasmid co-transfection was required, siRNA and plasmid-carrying transfection mixes were prepared separately and added one after the other in the same well. […] The treatment we used employed the low serum (0.5% serum) without hFGF. Treatment to induce uncompensated oxidative stress (UOS) was performed after 8 hours of low-serum medium incubation unless specifically noted. Wnt5a, Wnt3a or NPD1 was added immediately before induction of UOS.

Wnt5a/FZD5 = assay: Immunocytochemistry of Wnt5a/FZD5 colocalization and vesicles in hpRPE cells; type: cell-based, human; conditions: for size of FZD5/Wnt5a vesicles: Wnt5a added; for size of FZD5/Wnt5a vesicles / vesicle load (mean intensity per vesicle) / intensity and number of Wnt5a-positive vesicles / number of FZD5-positive vesicles: IMARIS; for vesicle load (mean intensity per vesicle): external Wnt5a added; for number of Wnt5a/FZD5 colocalized vesicles per field: UOS 1600 μM H2O2, 2 hours, +/− 50 ng/ml Wnt5a, no Pitstop2
Procedure: To ascertain localization and interaction between FZD5 and Wnt5a we incubated hpRPE undergoing UOS with Wnt5a+/−NPD1 or other lipid mediators.
as §1
In an embodiment involving early stages of apoptosis, the total number of cells per field is assessed and counted to ensure unbiased observations. […] Settings can be adjusted in the conditions that show higher intensity and can be used throughout the remaining samples. In an embodiment, Pearson's colocalization coefficient (PCC) is obtained using FV1200 analysis software for every field in each experiment, and the mean and SEM are depicted in FIGS. 7-11.
Immunostaining was performed in 8-well slide chambers and the Hoechst staining in 24 well plates. […] Briefly, cells were fixed using 4% paraformaldehyde in PBS 1× for 20 min at room temperature or overnight at 4° C. After three washes with PBS, cells were permeabilized using 0.1% Triton™ X-100 for five minutes and blocked using 10% normal serum and 1% BSA for one hour. […] Hoechst staining was performed using same protocol of fixation, but permeabilization was done using methanol for 20 min at room temperature. […] Dying cells were identified by size (0 to 50 pixels), intensity threshold and circularity. The ratio of hyperpyknotic cells over the total was calculated for nine randomly chosen fields per sample obtained from three independent wells per experiment. Each experiment was repeated at least three times to confirm the findings. In the experiments involving early stages of apoptosis, we assessed the total number of cells per field and counted them to ensure unbiased observations. […] Pearson's colocalization coefficient (PCC) was obtained using FV1200 analysis software for every field in each experiment, and the mean and SEM are depicted in Figures S1-S5. […] IMARIS software analysis was performed building a colocalization channel using the Costes thresholding, and the colocalized elements were analyzed using the spots function using the settings different spots sites, background subtraction and local contrast. The output obtained consisted on a collection of sizes (one per element in each picture) or the mean of the intensity in each spot.

Molecule	UOS-dependent NFkB activation and apoptosis (FIG. 18B legend) (ARPE-19 cells and hpRPE)	apoptosis by UOS in the presence of the Wnt ligand (ARPE-19 cells and hpRPE; Hoechst staining)	size of FZD5/Wnt5a vesicles (Wnt5a/FZD5; hpRPE under UOS)	mode of Wnt5a and FZD5 signal intensity (Wnt5a/FZD5; hpRPE under UOS, absence of rWnt5a)	vesicle load (mean intensity per vesicle) (Wnt5a/FZD5; hpRPE under UOS)	intensity and number of Wnt5a-positive vesicles (Wnt5a/FZD5; hpRPE under UOS)	number of FZD5-positive vesicles (Wnt5a/FZD5; hpRPE under UOS)	number of Wnt5a/FZD5 colocalized vesicles per field (Wnt5a/FZD5; hpRPE)	quantity of large only-Wnt5a positive spots (Wnt5a/FZD5; hpRPE, absence of Wnt5a)	apoptosis in cells only exposed to UOS (ARPE-19 cells and hpRPE; no Wnt5a added, Hoechst staining)	cell death by UOS on addition of Wnt5a (ARPE-19 cells and hpRPE)	cell death by UOS on addition of Wnt5a (ARPE-19 cells and hpRPE; listed as Recombinant Wnt5a)	effect of Wnt5a alone on RPE cells (apoptosis) (ARPE-19 cells and hpRPE; resting cells, no UOS)
CC/C=C\C[C@H](O)\C=C/C=C/C=C/[C@H](O)C/C=C\C/C=C\CCC(=O)O [NPD1, 10R,17S-dihydroxy-docosa-4Z,7Z,11E,13E,15Z,19Z-hexaenoic acid]	counteracted these effects	blocked apoptosis; also recorded: hindered apoptosis	Neither NPD1 nor Box5 affected the magnitude of the Wnt5a effect	restore both modes to control levels	higher Wnt5a/FZD5 and FZD5/Clathrin vesicle intensity when Wnt5a was added	difference in mean intensity distribution	decrease the number of FZD5-positive vesicles	brought down the number of vesicles per field; also recorded: had the same effect; also recorded: decreased the amount of vesicles per field	increased				
t-Boc-NH-Met-Asp-Gly-Cys-Glu-Leu-CO2H (Boc-MDGCEL-OH) [Box5]		blocked apoptosis; also recorded: hindered apoptosis	Neither NPD1 nor Box5 affected the magnitude of the Wnt5a effect		did not affected vesicle loads that showed FZD5/clathrin or Wnt5a/clathrin signal	did not modify the increase in intensity and number induced by UOS	decrease the number of FZD5-positive vesicles	decreased Wnt5a induction		decreased apoptosis; also recorded: prevented cell death			
Wnt5a: Recombinant Human/Mouse Wnt-5a Protein, CHO-derived (Gln38-Lys380), R&D systems 645-WN (protein) QVVIEANSWWSLGMNNPVQMSEVYIIGAQPLCSQLAGLSQGQKKLCHLYQDHMQYIGEGAKTGIKECQYQFRHRRWNCSTVDNTSVFGRVMQIGSRETAFTYAVSAAGVVNAMSRACREGELSTCGCSRAARPKDLPRDWLWGGCGDNIDYGYRFAKEFVDARERERIHAKGSYESARILMNLHNNEAGRRTVYNLADVACKCHGVSGSCSLKTCWLQLADFRKVGDALKEKYDSAAAMRLNSRGKLVQVNSRFNSPTTQDLVYIDPSPDYCVRNESTGSLGTQGRLCNKTSEGMDGCELMCCGRGYDQFKTVQTERCHCKFHWCCYVKCKKCTEIVDQFVCK								increased the number of vesicles that co-localize with FZD5			enhanced cell death triggered by H2O2; also recorded: enhances the percentage of cell death induced by UOS	potentiated cell death by UOS	no effect
